# Measured values as given in patent publication US20050282818A1, “Ubiquitin ligase inhibitors” (Rigel Pharmaceuticals, Inc., priority 2004, published 2005).
# System: U2OS cells
# Assay: Cell proliferation PAD assay, U2OS
# Assay type: cell-based
# Conditions: Homo sapiens, 6pt, 48 hours
# Text: (§1) Table 3 illustrates the inhibitory activity of the compounds of the invention determined by the PAD assay described above in a number of cell types. Apoptosis was not
# Cell lines used are available from American Type Culture Collection (ATCC), for example, cell cultures containing A549 (ATCC# CCL-185), HeLa (ATCC# CCL-2), HCT116 ATTC# CCL-247), and H1299 (ATCC# CRL-5803) cells were maintained in T175 flasks following the ATCC recommended media and handling procedures. […] A 20,000 cells/ml solution was made for plating. Cells were plated in black Packard 96 well plates by placing 100 μl per well (2,000 cells per well). […] The definitions of the cell types used are as follows: A549 is lung carcinoma; HI 299 is non-small cell lung carcinoma; HI 155 is non-small cell lung carcinoma; AsPC-1 is pancreatic adenocarcinoma; Caov-3 is ovarian adenocarcinoma; COLO 205 is colorectal adenocarcinoma; DLD-1 colorectal adenocarcinoma; HCT116 is colorectal carcinoma; DU 145 is prostate carcinoma; ES-2 is ovarian clear cell carcinoma; H460 is large cell lung carcinoma; HELA is cervical adenocarcinoma; MIA PaCa-2 is pancreatice carcinoma; OVCAR-3 is ovarian adenocarcinoma; OVCAR8 is ovarian carcinoma; PC3 is prostate adenocarcinoma; SK-OV-3 is ovarian adenocarcinoma; SU86.86 is pancreatic carcinoma; TOV-21G is avarian clear cell carcinoma; U2OS is bone osteosarcoma; is ASPC-I is pancreatic adenocarcinoma; BXPC-3 is pabcreatic adenocarcinoma; HL60 is promyeloblast promyelocytic leukemia; K562 is bone marrow chronic myelogenous leukemia; L1210 is mouse lymphocytic leukemia; MOLT3 is T lymphoblast acute lymphoblastic leukemia; MOLT4 is T lymphoblast acute lymphoblastic leukemia; SW620 is colorectal adenocarcinoma; THP-1 is monocyte acute monocytic leukemia; U937 is histiocytic lymphoma; and UACC-257 is melanoma.
# Compounds and additional media were added 24 hours after cell plating. A compound master plate was created with concentrations 500 times greater than the final concentration added to the cells. All compound testing was done in duplicate using 6.3 fold dilutions starting with 10 mM. All outside wells (and 4 internal wells) were DMSO controls. Taxol and at least one additional control were run on all plates. Three microliters of the compound master plate were added to deep well blocks containing 750 μl of RPMI media. One hundred microliters were transferred from the compound/media deep well blocks to the plated cells resulting in a 500 fold dilution of the compounds. Cells were grown at 37° C., 5% CO2 for 48 hours.
# Cells to be analyzed by photography were fixed and stained. One hundred microliters of media were removed and 100 μl of 9.3% formamide was added to each well. Plates were left on the benchtop for 45 minutes. A staining solution containing 1.55 μl of 1 mg/ml DAPI added to 18.75 ml PBS was warmed for 15 minutes at 37° C. The cells were aspirated prior to washing with 100 μl of PBS. Seventy microliters of PBS were aspirated and 170 μl of the DAPI solution were added to each well of fixed cells. Plates were left at room temperature for one hour then aspirated and washed twice with 100 μl of PBS. The stained cells were left at 4° C. for a minimum of 16 hours before photographic analysis with Array Scan II (Cellomics). Analysis of the photographic images to determine numbers of live cells (proliferation), apoptotic cells and dead cells, were according to the methods described in U.S. Utility patent application Ser. No. 10/652,440, which incorporated herein in its entirety.
row,Compound,IC50 [nM]
1,"O=[N+]([O-])c1ccc(SCCO)c2nonc12 [compound 150, 2-[(7-nitro-2,1,3-benzoxadiazol-4-yl)thio]ethanol]",< 1000
2,"COC(=O)c1ccc(NS(=O)(=O)c2ccc(F)c3nonc23)cc1 [compound 167, methyl 4-{[(7-fluoro-2,1,3-benzoxadiazol-4-yl)sulfonyl]amino}benzoate]",< 1000
3,"COC(=O)c1ccc(NS(=O)(=O)c2c(Cl)ccc3nonc23)cc1 [compound 178, methyl 4-{[(5-chloro-2,1,3-benzoxadiazol-4-yl)sulfonyl]amino}benzoate]",< 1000
4,"O=S(=O)(c1c(Cl)ccc2nonc12)N1CCN(c2ncc(C(F)(F)F)cc2Cl)CC1 [compound 179, 5-chloro-4-({4-[3-chloro-5-(trifluoromethyl)pyridin-2-yl]piperazin-1-yl}sulfonyl)-2,1,3-benzoxadiazole]",< 1000
5,"O=c1[nH]c2ccccc2n1C1CCN(S(=O)(=O)c2ccc(Cl)c3nonc23)CC1 [compound 188, 1-{1-[(7-chloro-2,1,3-benzoxadiazol-4-yl)sulfonyl]piperidin-4-yl}-1,3-dihydro-2H-benzimidazol-2-one]",< 1000
6,"Cc1cccc(N2CCN(S(=O)(=O)c3c(Cl)ccc4nonc34)CC2)n1 [compound 202, 5-chloro-4-{[4-(6-methylpyridin-2-yl)piperazin-1-yl]sulfonyl}-2,1,3-benzoxadiazole]",< 1000

# Now from value to compound:
row,IC50 [nM],Compound
1,< 1000,"O=S(=O)(Oc1ccc(N2CCN(S(=O)(=O)c3ccc(Cl)c4nonc34)CC2)cc1)c1ccc(Cl)c2nonc12 [compound 171, 4-{4-[(7-chloro-2,1,3-benzoxadiazol-4-yl)sulfonyl]piperazin-1-yl}phenyl 7-chloro-2,1,3-benzoxadiazole-4-sulfonate]"
2,< 1000,"CC(=O)N1CCN(S(=O)(=O)c2c(Cl)ccc3nonc23)CC1 [compound 201, 4-[(4-acetylpiperazin-1-yl)sulfonyl]-5-chloro-2,1,3-benzoxadiazole]"
3,1000 to 20000,"O=S(=O)(Nc1ccc2cn[nH]c2c1)c1ccc(Cl)c2nonc12 [compound 220, 7-chloro-N-1 H-indazol-6-yl-2,1,3-benzoxadiazole-4-sulfonamide]"
4,< 1000,"Cc1cc(C)cc(-c2ccc([N+](=O)[O-])c3nonc23)c1 [compound 286, 4-(3,5-Dimethylphenyl)-7-nitro-2,1,3-benzoxadiazole]"

# System: MIA PaCa-2 cells
# Assay: Cell proliferation PAD assay, MIA PaCa-2
# Assay type: cell-based
# Conditions: Homo sapiens, Miapaca2 cells, 9pt, 48 hours
# Text: as §1
# (§2) Cell lines used are available from American Type Culture Collection (ATCC), for example, cell cultures containing A549 (ATCC# CCL-185), HeLa (ATCC# CCL-2), HCT116 ATTC# CCL-247), and H1299 (ATCC# CRL-5803) cells were maintained in T175 flasks following the ATCC recommended media and handling procedures. […] A 20,000 cells/ml solution was made for plating. Cells were plated in black Packard 96 well plates by placing 100 μl per well (2,000 cells per well). […]
# (§3) Cells to be analyzed by photography were fixed and stained. […]
row,IC50 [nM],Compound
1,< 1000,"CC1(C)CCN(S(=O)(=O)c2c(Cl)ccc3nonc23)CC1 [compound 245, 5-chloro-4-[(4,4-dimethylpiperidin-1-yl)sulfonyl]-2,1,3-benzoxadiazole]"

# System: COLO 205 cells
# Assay: Cell proliferation PAD assay, COLO 205
# Assay type: cell-based
# Conditions: Homo sapiens, Colo205 cells, 9pt, 48 hours
# Text: as §1, §2, §3
row,IC50 [nM],Compound
1,< 1000,"CC1(C)CCN(S(=O)(=O)c2c(Cl)ccc3nonc23)CC1 [compound 245, 5-chloro-4-[(4,4-dimethylpiperidin-1-yl)sulfonyl]-2,1,3-benzoxadiazole]"
